One experiment concerns MEF/GFP-Stat3α cells. Nature of the experiment: High-throughput fluorescence microscopy (HTFM) cytoplasmic-to-nuclear translocation of GFP-Stat3α. The conditions noted are these: Mus musculus, 0.5 h; Table 4; MEF/GFP-Stat3α, IL-6 200 ng/ml and IL-6sR 250 ng/ml 30 min; read-out: HTM IC50. It counts as cell-based, murine. On the procedure: Coverslips were examined by confocal fluorescent microscopy using filters to detect GFP (column one), DAPI (column two) or both (merge; column three). In panel B, MEF-GFP-Stat3 cells were grown in 96-well plates with optical glass bottoms and pretreated with the indicated compound at the indicated concentrations in quadruplicate for 1 hour then stimulated with IL-6 (200 ng/ml) and IL-6sR (250 ng/ml) for 30 minutes. Cells were fixed and the plates were examined by high-throughput microscopy to determine the fluorescence intensity in the nucleus (FLIN) and the % ΔFLINMax was calculated as described in Example 1. Data shown are mean±SD and are representative of 2 or more studies. Best-fit curves were generated based on 4 Parameter Logistic Model/Dose Response One Site/XLfit 4.2, IDBS and were used to calculate IC50 (Table 1).
Confocal and high-throughput fluorescence microscopy. Confocal and highthroughput fluorescence microscopy (HTFM) of MEF/GFP-Stat3α cells were performed as described (Huang et al., 2007). Briefly, for confocal fluorescence microscopy, cells were grown in 6-well plates containing a cover slip. For HTFM, cells were seeded into 96-well CC3 plates at a density of 5,000 cells/well using an automated plating system. Cells were cultured under standard conditions until 85-90% confluent. Cells were pretreated with compound for 1 hour at 37° C. then stimulated with IL-6 (200 ng/ml) and IL-6sR (250 ng/ml) for 30 minutes. […] Plates were analyzed by automated HTFM using the Cell Lab IC Image Cytometer (IC100) platform and CytoshopVersion 2.1 analysis software (Beckman Coulter). Nuclear translocation is quantified by using the fraction localized in the nucleus (FLIN) measurement (Sharp et al., 2006). […]
EXP IIB. High throughput fluorescence microscopy (HTFM), cytoplasm-to-nucleus translocation inhibition assays. […] Plates are analyzed by automated HTFM using the Cell Lab IC Image Cytometer (IC100) platform and CytoshopVersion 2.1 analysis software (Beckman Coulter). […]

In experiment [1] the target is T1, Stat3-DNA (hSIE) complexes (Homo sapiens, UniProt P40763).
T1 construct: high salt extracts were prepared from HepG2 cells incubated without or with IL-6 (30 ng/ml) for 30 minutes; endogenous in cells; host or cells: HepG2 (IL-6-stimulated), whole-cell high-salt extract
T1 sequence (P40763 2-770 limits assumed, one chain of several): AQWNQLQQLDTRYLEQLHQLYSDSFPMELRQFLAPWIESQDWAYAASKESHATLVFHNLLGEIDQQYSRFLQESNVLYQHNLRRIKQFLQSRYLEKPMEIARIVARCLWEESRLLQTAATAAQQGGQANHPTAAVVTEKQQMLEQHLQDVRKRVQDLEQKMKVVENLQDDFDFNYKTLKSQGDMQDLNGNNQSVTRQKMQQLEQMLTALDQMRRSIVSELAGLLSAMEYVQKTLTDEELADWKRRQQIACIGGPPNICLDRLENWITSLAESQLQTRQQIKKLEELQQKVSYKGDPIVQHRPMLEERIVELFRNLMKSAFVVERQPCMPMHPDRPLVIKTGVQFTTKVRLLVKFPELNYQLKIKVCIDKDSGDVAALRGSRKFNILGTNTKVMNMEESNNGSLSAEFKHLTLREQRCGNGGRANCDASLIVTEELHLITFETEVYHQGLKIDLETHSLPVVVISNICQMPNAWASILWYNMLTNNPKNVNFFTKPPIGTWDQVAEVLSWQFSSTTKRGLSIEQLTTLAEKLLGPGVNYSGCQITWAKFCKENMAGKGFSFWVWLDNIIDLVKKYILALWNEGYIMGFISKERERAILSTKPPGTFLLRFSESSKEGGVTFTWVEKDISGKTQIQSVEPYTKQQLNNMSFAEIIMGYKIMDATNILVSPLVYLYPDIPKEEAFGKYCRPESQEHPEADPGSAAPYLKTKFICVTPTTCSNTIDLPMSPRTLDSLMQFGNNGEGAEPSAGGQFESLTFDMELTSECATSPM
The experiment in a line: Electrophoretic mobility shift assay (EMSA), Stat3:hSIE DNA binding. It counts as biochemical. The conditions noted are these: 300 μM, extracts of IL-6-stimulated HepG2 cells. The procedure:
Electrophoretic mobility shift assays were performed using whole-cell extracts prepared from HepG2 cells without and with stimulation with IL-6 (30 ng/ml) for 30 min. Protein (20 μg) was incubated with radiolabeled duplex oligonucleotide (hSIE) and DMSO without or with the indicated compounds (300 uM) for 60 minutes at 37° C. then separated by PAGE. The gel was dried and autoradiographed; the portion of the gel corresponding to the Stat3-bound hSIE band is shown. Data shown are representative of 2 studies.
Electrophoretic Mobility Shift Assay (EMSA): EMSA was performed using the hSIE radiolabeled duplex oligonucleotide as a probe as described (Tweardy et al., 1995). Briefly, high salt extracts were prepared from HepG2 cells incubated without or with IL-6 (30 ng/ml) for 30 minutes. Protein concentration was determined by Bradford Assay and 20 ug of extract was incubated with compound (300 uM) for 60 minutes at 37 °C. […] Gels were dried and autoradiographed.
Once in the nucleus, Stat3 dimers bind to specific DNA elements to activate and, in some instances, repress gene transcription. […] Compounds that bind to the phosphopeptide-binding site of Stat3 might be expected to do the same. […]

In another experiment the test system is breast cancer cell lines. The experiment in a line: Apoptosis of breast cancer cell lines with constitutive Stat3 activation. It counts as cell-based.

As to `O=C(O)c1ccc(C=CC(=O)c2ccc3c(c2)OCCO3)cc1` [Cpd3, 4-[3-(2,3-dihydro-1,4-benzodioxin-6-yl)-3-oxo-1-propen-1-yl]benzoic acid], the IC50 in the experiment with MEF/GFP-Stat3α cells amounted to 131 µM. The “Stat3:hSIE band intensity (amount of hSIE shifted)” value in experiment [1] is “reduced the amount of hSIE shifted by half or greater”. In addition, the “induction of apoptosis of breast cancer cell lines” value in the experiment with breast cancer cell lines was “induced apoptosis preferentially”.

Turning to `CCOc1cc(C=C2C(=O)c3ccccc3C2=O)cc(Cl)c1OCc1cccc(C(=O)O)c1` [Cpd3-2, 3-({2-chloro-4-[(1,3-dioxo-1,3-dihydro-2H-inden-2-ylidene)methyl]-6-ethoxyphenoxy}methyl)benzoic acid], in the experiment with MEF/GFP-Stat3α cells, the IC50 was 150 µM.

The record behind these values is US20150031714A1, “METHODS AND COMPOSITIONS FOR PREVENTION OF ALLERGIC REACTION” (Baylor College of Medicine, priority 2013, published 2015).
